Where two headings read alike, the source gives them in different places.
Tested on: T1, NozMT
T1 construct: N-terminal hexahistidine-tagged, codon-optimized synthetic gene in pQE31, E. coli M15(pREP4), Ni-NTA purified
Test: initial rates, HPLC-UV […] nm, Michaelis-Menten fit
Format: biochemical, Nocardiopsis sp. CMB-M0232
Conditions: 2 mM SAM, 10 μM enzyme, 40 mM Tris pH 7.5, 200 mM NaCl, 1% DMSO, 37 °C

Row | SMILES | Km (N1' methylation, read-out: apparent average Km) | Km (C3 methylation, read-out: apparent Km)
1 | CC(C)=CC[C@]12C[C@@H]3C(=O)N[C@H](Cc4c[nH]c5ccccc45)C(=O)N3[C@H]1Nc1ccccc12 [compound 6, cyclo-D-Trp-C3'-prenyl-D-Trp] | 146 µM | –
2 | CC(C)=CC[C@]12C[C@@H]3C(=O)N[C@H](Cc4c[nH]c5ccccc45)C(=O)N3[C@H]1N(C)c1ccccc12 [compound 7, cyclo-D-Trp-N1'-methyl-C3'-prenyl-D-Trp] | – | 606 µM
